Experimental data: patent US20090220599A1, “Antifungal formulation and manufacturing method thereof” (Industrial Technology Research Institute, priority 2003, published 2009)

Legend:
[1] = background statement; cited from earlier work
[2] = UV-Vis absorbance ratio of sterol-PEG/AmB (affinity comparison); assay type: binding; settings: for affinity ordering of sterol-PEG to AmB / variation of the UV-Vis absorbance ratios A415nm/A350nm: FIG. 2; for variation of the UV-Vis absorbance ratios A415nm/A350nm: for any mixing molar ratios with AmB
Experimental: (1) Adding 23.1 mg AmB aqueous solution to 5 ml dimethyl sulfoxide (DMSO), and then adding in 495 ml ionized water to prepare a mixture. Taking 10 ml volume out of the mixture, and diluting the 10 ml volume with 30 ml 1% dimethyl sulfoxide (DMSO) aqueous solution to prepare 12.5 μM AmB aqueous solution. (2) Adding 13 g n-propanol to 187 ml ionized water to prepare 6.5% n-propanol aqueous solution. (3) Adding 24.4 mg cholesterol-PEG600 to 6.5 g n-propanol, shaking them to completely dissolve cholesterol-PEG600 in n-propanol, and then adding in 93.5 g ionized water to prepare 250 μM cholesterol-PEG600 aqueous solution. (4) Adding […] stigmasterol-PEG600 to 6.5 g n-propanol, shaking them to completely dissolve stigmasterol-PEG600 in n-propanol, and then adding in 93.5 g ionized water to prepare 250 μM stigmasterol-PEG600 aqueous solution. (5) Adding 24.6 mg ergosterol-PEG600 to 6.5 g n-propanol, shaking them to completely dissolve ergosterol-PEG600 in n-propanol, and then adding in 93.5 g ionized water to prepare 250 μM ergosterol-PEG600 aqueous solution. (6) Mixing 10 ml 12.5 μM AmB and 10 ml 250 μM cholesterol-PEG600, the molar ratio of AmB/cholesterol-PEG600 is 1/20. The UV-Vis absorbance ratio A415nm/A350nm of AmB/cholesterol is 0.40 (scanning from 300 nm to 450 nm). (7) Mixing 10 ml 12.5 μM AmB, 5 ml 6.5% n-propanol and 5 ml 250 μM cholesterol-PEG600. The molar ratio of AmB/cholesterol-PEG600 is 1/10. The UV-Vis absorbance ratio of A415nm/A350nm of AmB/cholesterol-PEG600 is 0.44. (8) Mixing 10 ml 12.5 μM AmB, 7.5 ml 6.5% n-propanol and 2.5 ml 250 μM cholesterol-PEG600. The molar ratio of AmB/cholesterol-PEG600 is 1/5. The UV-Vis absorbance ratio of A415nm/A350nm of AmB/cholesterol-PEG600 is 0.48. (9) Mixing 10 ml 12.5 μM AmB, 9.5 ml 6.5% n-propanol and 0.5 ml 250 μM cholesterol-PEG600. The molar ratio of AmB/cholesterol-PEG600 is 1/1. The UV-Vis absorbance ratio of A415nm/A350nm of AmB/cholesterol-PEG600 is 0.48. (10) Measuring absorbance ratio of stigmasterol-PEG600/AmB and ergosterol-PEG600/AmB by the procedures with the same, the result is shown in FIG. 2.
(§1) Using UV-Vis spectroscopy to measure UV-Vis absorbance ratios of cholesterol-PEG600, stigmasterol-PEG600 and ergosterol-PEG600 prepared in Example I to AmB and UV-Vis absorbance ratios of cholesterol, stigmasterol and ergosterol to AmB. The results are as shown in FIG. 1 and FIG. 2, in which FIG. 1 is a curve diagram of A415nm/A350nm vs. sterol/AmB and FIG. 2 is a curve diagram of A415nm/A350nm vs. sterol-PEG600/AmB.

[3] = UV-Vis absorbance ratio of sterol/AmB (affinity comparison); assay type: binding; settings: for affinity ordering of these three sterols to AmB: FIG. 1, molar ratios from 1:1 to 20:1
Experimental: (1) Adding 23.1 mg Amphotericin B (AmB) to 5 ml dimethyl sulfoxide (DMSO), and then adding in 495 ml ionized water to prepare a mixture, and taking 10 ml volume out of the mixture; diluting the 10 volume with 30 ml 1% dimethyl sulfoxide (DMSO) solution to prepare 12.5 μM Amphotericin B (AmB) aqueous solution. (2) Adding 13 g n-propanol to 187 ml ionized water to prepare 6.5% n-propanol aqueous solution. (3) Adding 28.9 mg cholesterol to 19.5 g n-propanol, shaking them to completely dissolve cholesterol in n-propanol, and then adding in 280.5 gram ionized water to prepare 250 μM cholesterol aqueous solution. (4) Adding […] stigmasterol to 19.5 g n-propanol, shaking them to completely dissolve stigmasterol in n-propanol, and then adding in 280.5 gram ionized water to prepare 250 μM stigmasterol aqueous solution. (5) Adding 29.7 mg ergosterol to 19.5 g n-propanol, shaking them to completely dissolve ergosterol in n-propanol, and then adding in 280.5 gram ionized water to prepare 250 μM ergosterol aqueous solution. (6) Mixing 10 ml 12.5 μM AmB aqueous solution with 10 ml 250 μM cholesterol aqueous solution. The molar ratio of AmB/cholesterol is 1/20. The UV-Vis absorbance ratio A415nm/A350nm of AmB/cholesterol is 0.61 (scanning from 300 nm to 450 nm). (7) Mixing 10 ml 12.5 μM AmB aqueous solution, 5 ml 6.5% n-propanol aqueous solution and 5 ml 250 μM cholesterol aqueous solution. The molar ratio of AmB/cholesterol is 1/10. The UV-Vis absorbance ratio A415nm/A350nm of AmB/cholesterol is 0.59. (8) Mixing 10 ml 12.5 μM AmB aqueous solution, 7.5 ml 6.5% n-propanol aqueous solution and 2.5 ml 250 μM cholesterol aqueous solution. The molar ratio of AmB/cholesterol is 1/5. The UV-Vis absorbance ratio A415nm/A350nm of AmB/cholesterol is 0.60. (9) Mixing 10 ml 12.5 μM AmB aqueous solution, 9.5 ml 6.5% n-propanol aqueous solution and 0.5 ml 250 μM cholesterol aqueous solution. The molar ratio of AmB/cholesterol is 1/1. The UV-Vis absorbance ratio A415nm/A350nm of AmB/cholesterol is 0.49. (10) Measuring absorbance ratio of stigmasterol/AmB and ergosterol/AmB by the procedures with the same, the result is shown in FIG. 1.
as §1

Molecule	affinity ordering of sterol-PEG to AmB [2]	variation of the UV-Vis absorbance ratios A415nm/A350nm [2]	affinity ordering of these three sterols to AmB [3]	further results
C[C@@H]1[C@H](O)[C@@H](C)/C=C/C=C/C=C/C=C/C=C/C=C/C=C/[C@H](O[C@@H]2O[C@H](C)[C@@H](O)[C@H](N)[C@@H]2O)C[C@@H]2O[C@](O)(C[C@@H](O)C[C@@H](O)[C@H](O)CC[C@@H](O)C[C@@H](O)CC(=O)O[C@H]1C)C[C@H](O)[C@H]2C(=O)O [Amphotericin B]				affinity for ergosterol of fungal cells compared with that for cholesterols of mammal [1]: ten times better
stigmasterol-PEG600	ergosterol-PEG600>stigmasterol-PEG600>cholesterol-PEG600	insignificant		
cholesterol-PEG600	ergosterol-PEG600>stigmasterol-PEG600>cholesterol-PEG600	insignificant		UV-Vis absorbance ratio A415nm/A350nm ([2]; molar ratio of AmB/cholesterol-PEG600 1/1): 0.48; UV-Vis absorbance ratio A415nm/A350nm ([2]; molar ratio of AmB/cholesterol-PEG600 1/5): 0.48; UV-Vis absorbance ratio A415nm/A350nm ([2]; molar ratio of AmB/cholesterol-PEG600 1/10): 0.44
CC[C@H](/C=C/[C@@H](C)[C@H]1CC[C@H]2[C@@H]3CC=C4C[C@@H](O)CC[C@]4(C)[C@H]3CC[C@]12C)C(C)C [stigmasterol]			cholesterol<stigmasterol<ergosterol	
ergosterol-PEG600	ergosterol-PEG600>stigmasterol-PEG600>cholesterol-PEG600	insignificant		
CC(C)CCC[C@@H](C)[C@H]1CC[C@H]2[C@@H]3CC=C4C[C@@H](O)CC[C@]4(C)[C@H]3CC[C@]12C [cholesterol]			cholesterol<stigmasterol<ergosterol	UV-Vis absorbance ratio A415nm/A350nm ([3]; molar ratio of AmB/cholesterol 1/1): 0.49; UV-Vis absorbance ratio A415nm/A350nm ([3]; molar ratio of AmB/cholesterol 1/5): 0.60; UV-Vis absorbance ratio A415nm/A350nm ([3]; molar ratio of AmB/cholesterol 1/10): 0.59; UV-Vis absorbance ratio A415nm/A350nm ([3]; molar ratio of AmB/cholesterol 1/20, scanning from 300 nm to 450 nm): 0.61; UV-Vis absorbance ratio A415nm/A350nm ([2]; molar ratio of AmB/cholesterol-PEG600 1/20, scanning from 300 nm to 450 nm): 0.40
CC(C)[C@@H](C)/C=C/[C@@H](C)[C@H]1CC[C@H]2C3=CC=C4C[C@@H](O)CC[C@]4(C)[C@H]3CC[C@]12C [ergosterol]			cholesterol<stigmasterol<ergosterol	
